Measured values as given in patent US20260216247A1, “Composition For Treatment Or Prevention Of Hair Loss Comprising Stem Cell-Derived Exosomes And Preparation Method Therefor” (BREXOGEN INC., priority 2023, published 2026).

What was measured:
[1] = tested on: testosterone-treated C57BL/6 mice; assay: Ratio of anagen-phase hair follicles in skin tissue (H&E), testosterone-treated animal model; assay type: in vivo; settings: Anagen/(Catagen+Telogen); dorsal skin after 27-day experiment; 1 mg/kg Finasteride subcutaneous
Procedure: To determine whether the composition of the present disclosure inhibits the reduction of hair follicles, the ratio of anagen-phase hair follicles was measured in a testosterone-treated animal model following administration of BxC-HAe isolated in Example 2. Specifically, dorsal skin tissues from each mouse subjected to the 27-day experiment described in Example 8 were collected, embedded in paraffin blocks, and sectioned at a thickness of 5 μm. The tissue sections were then stained using H&E. Subsequently, for each group, randomly selected hair follicles from the dorsal skin of five mice were classified by morphology into anagen (growth phase), catagen (regression phase), and telogen (resting phase). The ratio of anagen hair follicles was calculated using the formula: Anagen/(Catagen+Telogen). The results were presented in FIGS. 20 and 21, and Table 18.

β-catenin = β-catenin immunofluorescence in skin tissue, testosterone-treated animal model; assay type: in vivo, C57BL/6 mice; settings: dorsal skin after 27-day experiment; 1 mg/kg Finasteride; testosterone-untreated = 1
Procedure: To determine whether the composition of the present disclosure modulates the expression of hair loss and regrowth-related factors, a testosterone-treated animal model was administered BxC-HAe isolated in Example 2, and the fluorescence intensity of cells stained with antibodies against androgen receptor (AR) and β-catenin was measured and compared.
Specifically, dorsal skin tissues from each mouse subjected to the 27-day experiment (described in Example 8) were harvested, embedded in paraffin blocks, and sectioned at a thickness of 5 μm, followed by immunofluorescent staining.
The primary antibodies used were rabbit anti-β-catenin (Cell Signaling #9562) and mouse anti-AR (Santa Cruz, sc-7305). The fluorophore-conjugated secondary antibodies were goat anti-rabbit IgG conjugated with Alexa Fluor 488 (Abcam, ab150077) and goat anti-mouse IgG conjugated with Cyanine5 (Invitrogen, a10524).
After completion of the antibody reactions, DAPI staining was performed, and fluorescence patterns were analyzed using a Nikon ECLIPSE Ti2 fluorescence microscope and NIS-Elements software. The results are shown in FIGS. 22-24, and in Tables 19 and 20.

[2] = tested on: testosterone-treated C57BL/6 mice; assay: Hair regrowth in testosterone-treated animal model; assay type: in vivo; settings: Day 27; topical testosterone daily; 1 mg/kg Finasteride subcutaneous every other day; testosterone-untreated = 100
Procedure: To evaluate whether the composition of the present disclosure promotes hair regrowth, BxC-HAe isolated in Example 2 was administered to a testosterone-treated animal model, and changes in body weight and photographic observations were compared.
Specifically, six-week-old C57BL/6 mice were acclimated for two weeks under conditions of 25° C. and 50% humidity with ad libitum access to food and tap water. Eight-week-old mice were then used for the experiment.
On Day 0, initial depilation was performed using a hair clipper, followed by the application of Niklin (II-dong Pharmaceutical) for 90 seconds for secondary depilation. The area was then rinsed three times with lukewarm water.
In the testosterone-treated group, starting on Day 1, 100 μL of 0.5% (w/w) testosterone dissolved in 50% ethanol was topically applied daily to the depilated dorsal region of each mouse.
Starting from the point when hair regrowth began in the testosterone-untreated group, body weight was measured twice weekly, and photographs were taken once weekly.
Specifically, hair regrowth area and depilated area were measured using ImageJ software, and the ratio of hair regrowth area to depilated area was calculated and analyzed statistically.
The experiment was conducted until Day 27, the point at which hair regrowth was completed in the testosterone-untreated group. […]

Structure (SMILES): CC(C)(C)NC(=O)[C@H]1CC[C@H]2[C@@H]3CC[C@H]4NC(=O)C=C[C@]4(C)[C@H]3CC[C@]12C [Finasteride]
- Percentage of hair follicles in growth phase (%) [1]: 1.29%
- Fluorescence intensity (β-catenin) (β-catenin): 1.05
- Hair growth area (%) [2]: 68.1%
